# Laboratory results as given in patent US9017672B2, “Hexon Tat-PTD modified adenovirus and uses thereof” (Immunicum Aktiebolag, priority 2012, dated 2015).
# Experiments:
# [1] = test system: cisplatin-insensitive SK-N-FI cells; assay: Relative cell viability by MTS assay, virus or drug; assay type: cell-based
# Procedure: (§1) FIG. 25. Oncolytic adenovirus in combination with chemotherapy drugs. A cisplatin-insensitive clone of SK-N-FI and doxoru bicin-insensitive, etoposide-insensitive and vincristine-insensitive clones of SH-SY-5Y were established through repeated cycles of culture with increasing drug concentration. (A-D) Drug-sensitive (black lines) and drug-insensitive (grey dotted lines) neuroblastoma cells were then treated with viruses or drugs. The relative cell viability was analyzed after 4 days by MTS assay. (A) Oncolytic virus and cisplatin killing of SK-N-FI cells. (B) Oncolytic virus and etoposide killing of SH-SY-5Y cells. (C) Oncolytic virus and doxorubicin killing of SH-SY-5Y cells. (D) Oncolytic virus and vincristine killing of SH-SY-5Y cells. All data are shown as mean±SD from four independent experiments each with triplicate samples. (E) BON, NCI-H727 and QGP-1 cell lines were treated with PTD-based oncolytic adenovirus Ad5PTD(i/CgA-E1a-miR122T6) with different evg/cell in absence or presence of 10 μg/mL or 200 μg/mL cyclophosphamide. The relative cell viability was analyzed after 6 days by MTS assay.
# (§2) A cisplatin-insensitive clone of the SK-N-FI neuroblastoma cell line and doxorubicin-, etoposide- and vincristine-insensitive clones of SH-SY-SY were established and treated with viruses at different evg/cell or drugs at various concentrations. The relative cell viability was analyzed by MTS assay. […] Ad5PTD(WT) also killed cisplatin-sensitive and insensitive SK-N-FI with the same efficacy (FIG. 25A).
# [2] = test system: cisplatin-sensitive SK-N-FI cells; assay: as above; assay type: cell-based; details: drug
# Procedure: as §1, §2
# human neutrophils = assay: Transwell migration assay of neutrophils against supernatants of virus-transduced BON cells; assay type: cell-based; details: supernatants 48 hours post-transduction, MOI 10 FFU/cell
# Procedure: (§3) BON cells were transduced with viruses Ad5PTDf35(D24-sNAP) or Ad5PTDf35(D24) at MOI 10 FFU/cell. Supernatants were harvested 48 hours post-transduction. (a) Transwell migration assay of human neutrophils isolated from 4 different individuals (2×10^5 cells/well) against harvested supernatants for 2 hours at 37° C. All samples were analyzed in triplicates and the data is represented as mean±SD of number of cells migrated. Supernatant from untransduced BON cells were used as control, (***p<0.001; n=12). (b) Granulocyte activation assay with supernatants from virus-transduced BON cells for 30 minutes at 37° C. Activation was measured in terms of ROI production, which was monitored using fluorescent dye DHR123. Supernatant from untransduced BON cells were used as control. At least 10000 events were recorded in the flow cytometer and MFI of DHR123 was recorded, (**p<0.01; *p<0.05; n=5). (c) Mice bearing BON tumors were treated with two intratumoral injections of Ad5PTDf35(D24-sNAP) or Ad5PTDf35(Δ24) (Indicated dotted arrows) and 2 mice per group were sacrificed, blood and tumor samples were drawn at different time points (indicated by solid arrows). Serum was separated from blood by centrifugation at 300 g for 10 min. Concentration of various cytokines determined by ELISA are represented in (d) TNF-α, (e) MIP2-α and (f) IL12/23 p40. […] All samples were analyzed in duplicates. […]
# neutrophils = assay: Granulocyte activation assay, ROI production (DHR123); assay type: cell-based; details: supernatants of transduced BON cells, 30 minutes
# Procedure: as §3
# [3] = test system: TNF-α, MIP2-α, IL12/23 p40; assay: Serum cytokines by ELISA after intratumoral virus injections; assay type: in vivo; details: BON tumor-bearing mice, two intratumoral injections
# Procedure: as §3
Molecule,"IC50 ([1]; cisplatin-insensitive SK-N-FI, drug) [µM]",more drug needed to kill insensitive compared to sensitive cells ([1]; cisplatin-insensitive vs cisplatin-sensitive SK-N-FI) [fold],IC50 [2] [µM],neutrophil migration (human neutrophils),"neutrophil activation, release of reactive oxygen species (neutrophils)",induction of serum cytokines [3]
N.N.[Cl][Pt][Cl] [cisplatin],100,12,8,–,–,–
"HP-NAP: Helicobacter pylori Neutrophil Activating Protein, here secreted from virus-transduced cells (protein) MKTFEILKHLQADAIVLFMKVHNFHWNVKGTDFFNVHKATEEIYEEFADMFDDLAERIVQLGHHPLVTLSEAIKLTRVKEETKTSFHSKDIFKEILEDYKYLEKEFKELSNTAEKEGDKVTVTYADDQLAKLQKSIWMLQAHLA",–,–,–,efficiently induce neutrophil migration,activated them to release reactive oxygen species,induced proinflammatory cytokines (TNF-α and MIP2-α) and Th1 type cytokines (IL12/23 p40)
